Series [1] addresses T1, full length SYK and FCER1G (Homo sapiens, UniProt P43405).
T1 construct: full length GST-SYK and FCER1G-Flag were co-expressed in HEK293 cells prior to lysis; expressed in transfected cells; host or cells: HEK293T (CRL-3216, ATCC)
In words: GST pull-down (GST-PD) of GST-SYK and FCER1G-Flag from HEK293T cell lysates. Conditions: for PPI disruption in GST-PD: dose-response format; for Inhibition of SYK-GST / FCER1G-Flag interaction in pulldown: single concentration (100 μM). It is filed as biochemical. The protocol:
Pull-down assays were used as an orthogonal assay to determine if the compounds could disrupt the PPI between full length SYK and FCER1G proteins from cell lysates. To optimize GST pulldown assays, full length GST-SYK and FCER1G-Flag were co-expressed in HEK293 cells prior to lysis and the protein expression and cell lysate concentrations tested (Fig 4A). All 40 compounds that progressed from uHTS were tested via GST-PD at a single concentration (100 μM) to determine if they could inhibit the PPI between the full-length proteins, with the p-ITAM FCER1G peptide used as a positive control (Fig 4B). […] Compound 24 contains a promiscuous maleimide, which is well known to react indiscriminately with proteins.
GST-, VF-tagged human SYK and FCER1G plasmids for mammalian expression were generated using Gateway cloning technology (Invitrogen) as described previously. The DNA was purified using ZymoPURE Plasmid Maxiprep Kit (D4203, Zymo Research).
WB secondary antibodies: peroxidase-conjugated AffiniPure Goat Anti-Mouse IgG (H+L) (115-035-003, Jackson Immuno Research) 1:5000 dilution in TBST. GST pulldown was performed as described with minor changes. HEK293T (CRL-3216, ATCC) were cultured in Dulbecco’s modified Eagle’s medium with 4.5 g/L glucose, L-glutamine, and sodium pyruvate (10–013-CV, Corning) supplemented with 10% fetal bovine serum and 1% penicillin/streptomycin solution (30–002-CI, CellGro). Cells were incubated at 37°C in humidified conditions with 5% CO2. The HEK293T cells were transfected using 1 mg/mL Polyethylenimine (PEI; 23966, Polysciences) in a ratio of 3 μL to 1 μg DNA. The proteins were expressed for 48 h at 37°C. Cell pellets were re-suspended in the SYK lysis buffer (25 mM HEPES, pH 7.5, 200 mM NaCl, 0.5% Triton X100 (T9284-1L, Sigma-Aldrich), followed by sonication for 10 s (5 s on, 5 s off) at 4°C. Cells were pelleted by 10 min centrifugation at 13,000 rpm at 4°C. The cleared lysates were first pre-incubated with compounds for 30 min and then incubated with glutathione sepharose 4B beads (17075605, Cytiva Sweden AB) at 4°C for 2 h with rotation. After the incubation, beads were washed three times with the SYK lysis buffer, eluted by boiling in sodium dodecyl sulfate-polyacrylamide gel electrophoresis (SDS–PAGE) loading buffer (1610737, Bio-Rad), and analyzed by western blotting.

Series [2] in a line: Compound solubility with nephelometer. It is filed as physicochemical. Conditions: aqueous buffer, kinetic from dmso stock, PBS, 90 min at room temperature. The protocol: Stock compound (10 mM in DMSO) was serial diluted in PBS (21-040-CV, Corning) in 96-well Costar Assay plate (3904, Corning). After incubating compound in PBS for 90 min at room temperature, the Nephelometric turbidity units (NTUs) were measured with NEPHELOstar (BMG LABTECH, Cary, North Carolina). 0.2 s was used for a measure time and PBS only as the background. Each sample was tested in triplicate. Dose-response data was analyzed by GraphPad Prism and the solubility concentration is defined at the concentration that increases the NTUs at the turning point of the curve.

The next series deals with MSN (Homo sapiens, UniProt P26038). In words: Covalent labelling and intact mass spectrometry (selectivity). Conditions: 100 μM, 1 h, room temperature; four available cysteines.
Chain of MSN (P26038 whole entry, species assumed, the tested form may be a part): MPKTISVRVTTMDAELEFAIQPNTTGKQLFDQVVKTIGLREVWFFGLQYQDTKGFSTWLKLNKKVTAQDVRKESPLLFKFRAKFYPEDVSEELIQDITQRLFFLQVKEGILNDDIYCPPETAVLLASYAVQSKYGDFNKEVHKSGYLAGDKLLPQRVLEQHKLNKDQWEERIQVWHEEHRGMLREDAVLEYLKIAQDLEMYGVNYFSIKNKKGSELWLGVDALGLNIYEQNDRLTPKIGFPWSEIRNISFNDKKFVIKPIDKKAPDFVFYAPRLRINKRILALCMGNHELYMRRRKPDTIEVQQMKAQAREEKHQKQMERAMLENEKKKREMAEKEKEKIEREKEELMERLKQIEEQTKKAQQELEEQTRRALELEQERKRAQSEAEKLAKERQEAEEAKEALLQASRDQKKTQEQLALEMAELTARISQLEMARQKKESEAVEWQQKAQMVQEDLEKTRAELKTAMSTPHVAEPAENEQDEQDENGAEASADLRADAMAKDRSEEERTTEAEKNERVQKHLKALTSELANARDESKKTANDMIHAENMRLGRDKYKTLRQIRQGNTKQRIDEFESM
The target in series [3] is T2, SYK-tSH2 (Homo sapiens, UniProt P43405). In words: Covalent labelling and intact mass spectrometry. It is filed as binding. More on the design: tandem SH2 domains of human SYK (residues M6-N269); 6xHis (N, cleaved yes); made in house; host or cells: E. coli BL21(DE3)-R3-pRARE. Conditions: 100 μM, 1 h. An excerpt:
The HTS hits 13 and 37 contain a kojic acid moiety, which is proposed to react covalently with proteins in the literature. As a result, we thought that it was likely these compounds are also reacting covalently with SYK-tSH2. […] When bound to the protein, these kojic acid-derived compounds have a 94 Da decrease in mass due to the loss of the pyridin-2-amine leaving group to reveal a Michael acceptor that can react covalently with cysteine residues (Fig 5B).
To expand on the initial 40 putative hits that were identified via uHTS (Fig 3D), additional commercially available structural analogues were ordered and screened via TR-FRET and differential scanning fluorimetry (DSF) (S1 Table). […] The observation of a substantial reduction in protein melting temperature motivated us to determine if the compounds interacted covalently with the SYK-tSH2 domains. Additionally, since the thiourea in these small molecules is reported to react via oxidation, the compounds could be capable of forming a covalent disulfide bond with cysteine residues on SYK [39]. We used compound 1, which is a known covalent modifier of SYK-tSH2, as a positive control in the mass spectrometry analysis. […] Literature reports support that this type of chemical reaction can occur in DMSO, forming a disulfide bond. […] Like we had originally observed for the older DMSO stock solution of 42 (Fig 6C), 44 forms two to four mass adducts (422 Da and 844 Da) more than the protein mass when incubated SYK-tSH2 for 1 h (Fig 6D). […] Due to the mass adducts of two to four (422 Da and 844 Da), we propose that 44 is forming a disulfide bond with between two or four cysteines on SYK-tSH2 (Fig 6G).

Series [4] deals with T3, SYK-tSH2 / FCER1G p-ITAM interaction (Homo sapiens, UniProt P43405).
T3 construct: the tSH2 domain of SYK (residues M6-N269) fused to an N-terminal 6×His tag; made in house; host or cells: E. coli BL21(DE3)-R3-pRARE
The series can be described thus: TR-FRET assay of 6xHis-SYK-tSH2 with FITC-labeled FCER1G p-ITAM peptide. It is filed as biochemical. An excerpt:
To facilitate identification of inhibitors of the SYK-FCER1G interaction, we developed a TR-FRET assay using recombinant protein comprising the tSH2 domain of SYK (residues M6-N269) fused to an N-terminal 6×His tag (S1A Fig). The TR-FRET assay is based on the interaction of a FITC-labeled FCER1G p-ITAM peptide to the 6×His-SYK-tSH2 protein in complex with a terbium-conjugated anti-His antibody (Tb-Ab) (Fig 3B). Once excited, a TR-FRET signal is generated from the Tb donor to the FITC acceptor fluorophore. […] To enable uHTS for large scale screening of small molecule libraries, we miniaturized the TR-FRET assay from 96-well plate format to a 1536-well.
TR-FRET experiments were performed in 20 μL reactions, using 384-well shallow-well microplates (PerkinElmer). Final reaction components contained 6xHis-SYK-tSH2 (SYKA-c020 tagged) (4 nM), FITC-conjugated FCER1G peptide (8 nM), Tb-conjugated anti-6xHis antibody (53 ng/ml; Cisbio) in assay buffer containing 25 mM HEPES (pH 7.5), 200 mM NaCl, 0.1% BSA and 0.05% Tween-20. After a 2h incubation (at room temperature), TR-FRET signals were measured on a BMG Labtech PHERAstar FSX reader using a Lanthascreen Optics Module. A 200 μs delay was used after excitation with a flash lamp before measurement of fluorescence emission at […]. TR-FRET ratios of fluorescent intensity at 520 nm to 490 nm were calculated. The half maximal inhibitory concentration (IC50) was determined by fitting a four parametric logistic curve to the data.
(In general: TR-FRET usually uses a lanthanide donor and a delayed reading to cut background.)

The nature of series [5]: LCMS characterization of fresh versus older DMSO stocks. It is filed as physicochemical. Conditions: older DMSO stocks versus freshly prepared solutions. An excerpt:
To expand on the initial 40 putative hits that were identified via uHTS (Fig 3D), additional commercially available structural analogues were ordered and screened via TR-FRET and differential scanning fluorimetry (DSF) (S1 Table). […] The observation of a substantial reduction in protein melting temperature motivated us to determine if the compounds interacted covalently with the SYK-tSH2 domains. Additionally, since the thiourea in these small molecules is reported to react via oxidation, the compounds could be capable of forming a covalent disulfide bond with cysteine residues on SYK [39]. We used compound 1, which is a known covalent modifier of SYK-tSH2, as a positive control in the mass spectrometry analysis. […] Literature reports support that this type of chemical reaction can occur in DMSO, forming a disulfide bond. […]
Supplementary file pone.0293548.s005.tiff: S4 Fig Identification of active disulfide compounds which form in DMSO solutions of compounds 42 and 43. […] LCMS Calculated for [M+H]^+ C7H9N4O2S: 213.04; observed: 213.1 [M+H]^+. […] LCMS Calculated for [M+H]^+ C14H15N8O4S2: 423.06; observed: 423.0 [M+H]^+. […] LCMS Calculated for [M+H]^+ C10H15N4O2S: 255.08; observed: 255.1 [M+H]^+. […] LCMS Calculated for [M+H]^+ C20H27N8O4S2: 507.15; observed: 507.1 [M+H]^+. […]

For series [6], the target named is T2, SYK-tSH2. The series can be described thus: Bio-layer interferometry (BLI) direct binding. Conditions: biotinylated SYK-tSH2. A general note: BLI is a label-free optical method that tracks binding on a fibre tip over time.
The subject of the next series is SH-SY5Y cells. More on the design: method as in PMID 31324720. Conditions: 5 μM, cited from earlier work.
The next series has as its system Tg Tau P301S mice. Conditions: cited from earlier work.
Series [7] has as its system primary neuron-glia cultures. More on the design: method as in PMID 37009452. Conditions: cited from earlier work.
Series [8] can be described thus: Kinetic solubility (Analiza, Inc., CLND). Conditions: phosphate buffered saline, aqueous buffer, kinetic from dmso stock, PBS pH 7.4, 24 h incubation, by Analiza. It is filed as physicochemical. How it is done:
Following 24 h incubation in a Millipore solubility filter plate, samples were vacuum filtered, and the filtrates collected for analysis. Filtrates were injected into the nitrogen detector for quantification via total chemiluminescent nitrogen determination (CLND). Filtrates were quantified with respect to a calibration curve generated using standards that span the dynamic range of the instrument. The reported solubility value has been corrected for background nitrogen present in the media and DMSO.

In brackets after ≈: the same amount, converted by molar mass. Where two headings read alike, the source gives them in different places.

The text below walks through data of paper PMC10868801, “Characterization of covalent inhibitors that disrupt the interaction between the tandem SH2 domains of SYK and FCER1G phospho-ITAM” (PLOS ONE, 2024).

For orientation: solubility means the dissolved amount per volume that the medium holds. Lower therefore signals a poorly soluble substance. In the case of `O=c1cc(CO)oc(C(Nc2ccccn2)c2ccc3c(c2)OCO3)c1O` (stereo not shown) [compound 37], in series [1], the “PPI disruption in GST-PD” value is reported as “confirmed to disrupt the PPI” and the “Inhibition of SYK-GST / FCER1G-Flag interaction in pulldown” value is on record as “able to inhibit the interaction”. In addition, in series [2], the concentration in solution (solubility at 90 min) came to 100 µM (≈ 36.8 µg/mL). The “Number of mass adducts on MSN” value at MSN is on record as “one weak mass adduct”. For the same compound, on SYK-tSH2 [3] (room temperature), the “Number of mass adducts on SYK-tSH2” value was “between two and seven”.

As a reminder, the IC50 is the midpoint of a concentration-inhibition curve. Usually Kd stands for the free concentration of one partner at which half of the binding sites on the other are occupied at equilibrium, for simple one-to-one binding. As for `CC(C)n1c(S)nc2c1c(=O)n(C)c(=O)n2C` [compound 43], the IC50 in series [4] came to 3 ± 1.7 µM. Also, the “Stability in DMSO stock solution” value in [5] was “had formed corresponding disulfide dimers in DMSO over time”. For the same compound, the “BLI KD” value on SYK-tSH2 [6] is reported as “did not bind”. Moreover, the Kd at SYK-tSH2 [6] (read-out: BLI KD) was greater than 100 µM. For the same compound, the “Covalent modification of SYK-tSH2” value at SYK-tSH2 [3] (older DMSO stock solutions) is reported as “did not demonstrate covalent attachment”.

As for `COc1ccc(-c2cc3nccn3c(Nc3ncccc3C(N)=O)n2)cc1OC.Cl.Cl` [BAY61-3606, 2-[7-(3,4-Dimethoxyphenyl)-imidazo[1,2-c]pyrimidin-5-ylamino]nicotinamide Dihydrochloride], the “p-AKT, p-mTOR and p-p70 S6K levels” value with SH-SY5Y cells is “reduces p-AKT, p-mTOR, and p-p70 S6K levels”. The “Phosphorylated and total tau levels” value with SH-SY5Y cells (in vitro) is “reduces phosphorylated and total tau levels”. The “Levels of phospho-tau and total tau” value in the series on Tg Tau P301S mice (Tg Tau P301S mice, 20 mg/kg, 12 weeks) is “reduced levels of phospho-tau (p-tau) and total tau (t-tau)”. The “Effect in mouse tauopathy models” value in the series with Tg Tau P301S mice (mouse tauopathy models) is “decreased tau accumulation, neuronal and synaptic loss, neuroinflammation, and reversed defective autophagy”. Also, in series [7], the “Microglial-mediated phagocytosis of synapses and neurons” value was “reduced microglial-mediated phagocytosis of synapses and neurons”. In addition, in series [7] (primary neuron-glia cultures), the LPS-induced neuronal loss entry was “prevented lipopolysaccharide (LPS)-induced neuronal loss”.

For the compound `O=c1cc(CO)oc(C(Nc2ccccn2)c2ccc(F)cc2)c1O` (stereo not shown) [compound 13], in series [1], the “PPI disruption in GST-PD” value was “confirmed to disrupt the PPI” and the “Inhibition of SYK-GST / FCER1G-Flag interaction in pulldown” value is recorded as “able to inhibit the interaction”. The solubility at 90 min in [2] amounted to 100 µM (≈ 34.2 µg/mL). The “Number of mass adducts on MSN” value at MSN is listed as “one weak mass adduct”. For the same compound, on SYK-tSH2 [3] (room temperature), the “Number of mass adducts on SYK-tSH2” value was “between one and five”.

The solubility (kinetic) is solubility judged after dilution from a stock solution rather than from solid. `Cn1c(=O)c2[nH]c(=S)[nH]c2n(C)c1=O` [compound 42, 1,3-dimethyl-8-thioxo-3,7,8,9-tetrahydro-1H-purine-2,6-dione] came in with a concentration for half-maximal inhibition (IC50) in [4] of 1.9 ± 0.2 µM. In series [8], this compound showed a solubility (kinetic) at 24 h of 208 µM (≈ 44.1 µg/mL). Also, in [5], the “Stability in DMSO stock solution” value is “had formed corresponding disulfide dimers in DMSO over time”. Also, the Kd at SYK-tSH2 [6] (BLI KD) worked out at 99 ± 0.8 µM. Further, the figures for the “Covalent modification of SYK-tSH2” value on SYK-tSH2 [3] (freshly prepared DMSO stock) and at SYK-tSH2 [3] (older DMSO stock solutions) were “did not form a covalent adduct” and “covalently modifies SYK-tSH2”, respectively. The “Number of mass adducts on SYK-tSH2” value at SYK-tSH2 [3] (older DMSO stock solution) is recorded as “two”.
